Active and inactive are the calls of the source. No cut-off for these calls is given here.
Legend:
HCC827 [1] = assay: Antitumor activity against human HCC827 cells xenografted in female nude mouse model assessed as reduction in tumor weight at 5 to 10 mg/kg, ip measured every two days for 14 days; type: functional, organism-based; conditions: dose 5-10 mg/kg, time 14.0 day
[2] = Toxicity in female BALB/c mouse assessed as animal death at 30 mg/kg, ip measured for 7 days; type: organism-based; conditions: in vivo, 168 h, time 7 day
HCC827 [3] = assay: Induction of cell cycle arrest in human HCC827 cells assessed as accumulation of cells at S phase at 0.1 uM incubated for 24 hrs by PI staining based flow cytometry analysis (reference value: 26.41%); type: functional
HCC827 [4] = assay: Effect on NDUFB8 expression in human HCC827 cells at 0.25 to 0.5 uM; type: functional, cell-based; conditions: dose 0.25-0.5 µM
HCC827 [5] = assay: Downregulation of VDAC1 expression level in human HCC827 cells 0.25 to 0.5 uM incubated for 24 hrs in presence of BFA by Western blot analysis; type: functional, cell-based; conditions: dose 0.25-0.5 µM
HeLa = assay: Induction of mitophagy in human HeLa cells assessed as colocalization of mitochondria and lysosomes at 0.5 uM by lysotracker red staining based confocal microscopy analysis; type: functional, cell-based
HCC827 [6] = assay: Antiproliferative activity against human HCC827 cells assessed as increase in cell viability at 1 uM measured after 48 hrs in presence of BFA by MTT assay; type: functional, cell-based
[7] = Toxicity in female BALB/c mouse assessed as histopathological changes in spleen at 30 mg/kg, ip measured for 7 days by H and E staining based analysis; type: organism-based; conditions: in vivo, 168 h, time 7 day
[8] = Antiproliferative activity against human LO2 cells assessed as inhibition of cell growth measured after 72 hrs by MTT assay; type: toxicity, cell-based, L02
HCC827 [9] = assay: Antiproliferative activity against human HCC827 cells assessed as cell viability at 1 uM measured after 48 hrs in presence of deferoxamine by MTT assay relative to control; type: functional; conditions: read-out: Activity
HCC827 [10] = assay: Downregulation of TOMM20 expression level in human HCC827 cells incubated for 24 hrs by Western blot analysis; type: functional, cell-based; conditions: dose 0.25-0.5 µM
HCC827 [11] = assay: Downregulation of TIMM23 expression level in human HCC827 cells at 0.5 uM incubated for 24 hrs in presence of Baf A1 by Western blot analysis; type: functional, cell-based
HCC827 [12] = assay: Induction of apoptosis in human HCC827 cells assessed as early apoptotic cells at 0.25 uM measured after 48 hrs by annexin V and PI staining based flow cytometry analysis (reference value: 0.70%); type: functional
NCI-H460 = assay: Antiproliferative activity against human NCI-H460 cells assessed as inhibition of cell growth measured after 72 hrs by MTT assay; type: functional, cell-based; conditions: NCI-H460, 72 h
HCC827 [13] = assay: Effect on UQCRC2 expression in human HCC827 cells at 0.25 to 0.5 uM; type: functional, cell-based; conditions: dose 0.25-0.5 µM
HCC827 [14] = assay: Antiproliferative activity against human HCC827 cells assessed as cell viability preincubated with FMK followed by compound addition and measured after 48 hrs by MTT assay; type: functional, cell-based
HCC827 [15] = assay: Induction of mitochondrial dysfunction in human HCC827 cells assessed as reduction in glycolytic reserve at 0.125 to 5 uM incubated for 4 hrs by Seahorse XF96 extracellular flux analyzer; type: functional, cell-based; conditions: dose 0.125-5 µM
HCC827 [16] = assay: Induction of mitophagy in human HCC827 cells assessed as increase in LC3-II/LC-3-I ratio at 0.5 uM measured after 24 hrs by Western blot analysis; type: functional, cell-based
MDA-MB-231 = assay: Antiproliferative activity against human MDA-MB-231 cells assessed as inhibition of cell growth measured after 72 hrs by MTT assay; type: functional, cell-based; conditions: MDA-MB-231, 72 h
HCC827 [17] = assay: Antiproliferative activity against human HCC827 cells assessed as cell viability at 1 uM measured after 48 hrs in presence of SAS by MTT assay relative to control; type: functional; conditions: read-out: Activity
HCC827 [18] = assay: Induction of ROS generation in human HCC827 cells assessed as decrease in NADH content at 1 uM incubated for 4 hrs by absorbance based analysis; type: functional, cell-based
HCC827 [19] = assay: Effect on ATP5A expression in human HCC827 cells at 0.25 to 0.5 uM incubated for 24 hrs by Western blot analysis; type: functional, cell-based; conditions: dose 0.25-0.5 µM
Mitochondrial membrane = assay: Induction of mitochondrial membrane depolarization in HEK293T cells assessed as JC-1 monomer ratio by measuring increase green fluorescence at 0.25 uM incubated for 4 hrs by JC-1 staining based confocal microscopy analysis; type: cell membranes; conditions: Homo sapiens

With `Cc1ccc([P+](CCCCCCCCCCO)(c2ccc(C)cc2)c2ccc(C)cc2)cc1.[Br-]` the Activity (HCC827 [1]) was “Active”, the Activity [2] was “Non-toxic” and the Activity (HCC827 [3]) was 24.03%. For the same compound, the Activity (HCC827 [4]) was “Active”, the Activity (HCC827 [5]) was “inactive” and the Activity (HeLa) was “Active”. The Activity (HCC827 [6]) was “Active”, the Activity [7] was “Non-toxic” and the IC50 at 72 h [8] was 1310 nM. For the same compound, the viability at 1 µM (HCC827 [9]) was 51.4%, the Activity (HCC827 [10]) was “Dose-dependent-effect” and the Activity (HCC827 [11]) was “inactive”. For the same compound, the Activity (HCC827 [12]) was 1.16%, the IC50 (NCI-H460) was 110 nM and the Activity (HCC827 [13]) was “Active”. For the same compound, the IC50 (HCC827 [14]) was 110 nM, the Activity (HCC827 [15]) was “Active” and the Activity (HCC827 [16]) was “Active”. The IC50 (MDA-MB-231) was 100 nM, the viability at 1 µM (HCC827 [17]) was 7.48% and the Activity (HCC827 [18]) was “Active”. The Activity (HCC827 [19]) was “Active” and the Activity (Mitochondrial membrane) was “inactive”.

— ChEMBL document CHEMBL6182916, “Unexpected Discovery of a Novel Triphenylphosphonium Alkylalcohol That Triggers Cancer Cell Death via Mitophagy and Ferroptosis” (J Med Chem, 2025)
